The IC50 is the midpoint of a concentration-inhibition curve.

From PMC8569681, “New Pyrimidine and Pyridine Derivatives as Multitarget Cholinesterase Inhibitors: Design, Synthesis, and In Vitro and In Cellulo Evaluation” (ACS Chemical Neuroscience, 2021) come the findings set out here.

For series [1], the target named is T1, Electrophorus electricus AChE (EeAChE) (Electrophorus electricus, UniProt O42275).
T1 construct: purchased Sigma-Aldrich (Milan, Italy)
Description: biochemical. The conditions noted are these: 100 μM acetylthiocholine; read-out: EeAChE, IC50 ± SE. As to the method: The recorded data were analyzed with the enzyme kinetic module of SigmaPlot. All measurements were replicated three times, and the IC50 value obtained was confirmed by repeating the experiment twice.
For this purpose, eight different inhibitor solutions were prepared. […] The recorded data were analyzed by the enzyme kinetic module of SigmaPlot plotting the percentages of inhibition as a function of the different concentrations of the inhibitor, expressed in logarithmic scale, to obtain the sigmoid graph, from which it was possible to determine the IC50 value of the tested compound. The IC50 was confirmed by repeating the experiment twice.

The nature of series [2]: Antioxidant activity, DPPH spectrophotometric method. Conditions: for antioxidant activity (reaction with DPPH): DPPH about 25 μM, antioxidant 60 μM; for reaction time (time for reaching the plateau): DPPH, absorbance at 515 nm. Here is the method: The antioxidant activity assays were carried out according to the 2,2-diphenyl-1-picrylhydrazyl (DPPH) spectrophotometric method.[34] Initially, to assess whether the compounds had antioxidant activity and to define the time required by each antioxidant to reach the steady state, the reduction in absorbance over time at 515 nm of a solution of DPPH mixed with the tested compound was recorded until reaching the plateau. […] The value of EC50 can be extrapolated by plotting the percentage of residual DPPH at the steady state as a function of the molar ratio of the antioxidant to initial DPPH.
2,2-Diphenyl-1-picrylhydrazyl (DPPH), MeOH, and ascorbic acid, used as the reference standard, were purchased from Sigma-Aldrich. Micropipettes Labmate (BRAND Dig. 10–100 μL; Dig. 100–1000 μL) and Transferpette (HIGH TECH LAB LM200: 20–200 μL; LM5000: 1000–5000 μL) were used to collect the samples. The assays were carried out by a double beam UV–vis Lambda 40 Perkin Elmer spectrophotometer using optical polystyrene cuvettes (10 × 10 × 45 mm, 340–800 nm optical transparency); each measure was repeated at least in triplicate. For data processing, UV-WIN Lab version 2.0 (Perkin Elmer Corporation) was used. The antioxidant activity of the tested compounds was evaluated by the DPPH method[34] based on the ability of antioxidant compounds to react with the stable radical DPPH, which has a maximum absorption at about 515 nm. Thus, by measuring the decrease in absorbance over time of DPPH solutions to which increasing amounts of the tested compound are added, the antioxidant activity of the compound can be determined.
[…]. To 2.90 mL of MeOH, 60 μL of a DPPH solution in MeOH (∼1.2 mM) and 40 μL of an antioxidant solution in MeOH (4.5 mM) were added to have in the cuvette concentrations of DPPH equal to about 25 μM and of antioxidant equal to 60 μM. The exact DPPH concentration was calculated through the Lambert–Beer relation, known the extinction coefficient of DPPH at 515 nm, equal to 1.25 × 10^4.[34] The absorbance was recorded until the plateau was reached.
. To obtain the initial DPPH concentration, 2.94 mL of MeOH and 60 μL of the DPPH solution in MeOH (∼1.2 mM) were placed in a polystyrene cuvette and the absorbance was recorded at 515 nm. The exact initial DPPH concentration was calculated through the Lambert–Beer relation. For subsequent measurements, the cuvettes were set up by introducing the opportune volume of MeOH to reach a total volume of 3 mL, 60 μL of the DPPH solution in MeOH (∼1.2 mM, to have a final concentration of ∼25 μM), and the appropriate volumes of the antioxidant stock solution in MeOH to have final concentrations between 1.5 and 12 μM for 20 and between 5 and 60 μM for 18 and 30; the absorbance was recorded at 515 nm at the plateau and then after 1 min for compound 20 and after 90 min for compounds 18 and 30. Each measure was repeated four times. With absorbance data, the percentages of residual DPPH at steady state were obtained using the following equation: [drawing 3] where Ac is the average of absorbance in the presence of antioxidant at plateau and A0 is the average of the initial absorbance of DPPH.
The same procedure was performed using ascorbic acid as the antioxidant at cuvette concentrations between 1.5 and 18 μM, recording the absorbance at 515 nm after 2 min from the preparation of the cuvettes.
Background: DPPH is a stable violet radical that fades when it is reduced.

The test system of the next series is U-87 MG cell line. The experiment in a line: Cytotoxicity, MTT cell viability assay. The conditions noted are these: 24 h.

“Also recorded” adds a separate entry of the source.

T1 sequence (O42275 24-633): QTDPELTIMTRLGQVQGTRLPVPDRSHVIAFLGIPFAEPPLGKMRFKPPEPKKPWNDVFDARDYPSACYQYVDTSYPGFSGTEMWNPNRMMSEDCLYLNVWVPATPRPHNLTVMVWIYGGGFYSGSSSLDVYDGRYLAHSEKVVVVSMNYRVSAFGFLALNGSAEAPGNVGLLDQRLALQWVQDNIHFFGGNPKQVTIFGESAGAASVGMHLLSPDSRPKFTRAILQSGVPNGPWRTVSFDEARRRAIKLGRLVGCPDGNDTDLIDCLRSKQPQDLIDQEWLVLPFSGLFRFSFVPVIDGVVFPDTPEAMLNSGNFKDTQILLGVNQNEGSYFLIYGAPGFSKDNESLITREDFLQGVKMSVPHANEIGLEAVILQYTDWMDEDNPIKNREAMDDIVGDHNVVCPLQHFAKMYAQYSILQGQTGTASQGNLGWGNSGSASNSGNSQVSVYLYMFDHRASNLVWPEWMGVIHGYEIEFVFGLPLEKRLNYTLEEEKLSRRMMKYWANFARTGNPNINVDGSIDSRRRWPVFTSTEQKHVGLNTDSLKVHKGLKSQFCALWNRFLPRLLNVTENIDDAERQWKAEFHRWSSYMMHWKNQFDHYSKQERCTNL
Description for U-87 MG cell line: Data represent the absorbance % (± SD) relative to untreated cells in the same experiment and standardized to 100%. All data points were performed in triplicate and at least three independent experiments.
After an incubation time of 24 h, the medium was replaced by a new fresh medium containing 0.5 mg/mL MTT (Sigma, Deisenhofen, Germany). After 2 h at 37 °C in 5% CO2, unreacted dye was removed and cells were dissolved by DMSO (Merck, Darmstadt, Germany). Absorbance was read at 570 nm by a microtiter spectrophotometer plate reader. The data were expressed as absorbance relative to untreated cells in the same experiment and standardized to 100%. All data points were performed in triplicate and at least three independent experiments.

For `Oc1cccc(CNCCCCCCNc2ncccn2)c1O` [Compound 20, 3-(((6-(Pyrimidin-2-ylamino)hexyl)amino)methyl)benzene-1,2-diol], in series [1], the IC50 was determined as 0.622 µM. For the same molecule, in series [2], the “antioxidant activity (reaction with DPPH)” value (shortened to “antioxidant activity”) is “antioxidant properties; also recorded: showed antioxidant activity; also recorded: possess antioxidant activity; also recorded: most efficient antioxidant” and the “reaction time (time for reaching the plateau)” value (from here on “reaction time”) worked out at 1 min. Moreover, the “cytotoxicity on U-87 MG cells” value in the series on U-87 MG cell line (concentrations up to 10 μM) is given as “not cytotoxic”.
In the case of `Oc1cccc(CNCCCCCCNc2ncccn2)c1` [Compound 19, 3-(((6-(Pyrimidin-2-ylamino)hexyl)amino)methyl)phenol], the “antioxidant activity” value in series [2] is “did not show a significant ability to interact with DPPH; also recorded: no significant antioxidant capacity”.
Turning to `COc1cc(CNCCCCCCNc2ccccn2)ccc1O` [Compound 30, 2-Methoxy-4-(((6-(pyridin-2-ylamino)hexyl)amino)methyl)phenol], in series [2], the “antioxidant activity” value is reported as “antioxidant properties; also recorded: showed antioxidant activity; also recorded: possess antioxidant activity” and the “reaction time” value is on record as 90 min.
Take `COc1cc(CNCCCCCCNc2ncccn2)ccc1O` [Compound 18, 2-Methoxy-4-(((6-(pyrimidin-2-ylamino)hexyl)amino)methyl)phenol]: in series [2], the “antioxidant activity” value was “antioxidant properties; also recorded: showed antioxidant activity; also recorded: possess antioxidant activity” and the “reaction time” value is reported as 90 min.
Turning to `c1cnc(NCCCCCCNCc2c[nH]c3ccccc23)nc1` [Compound 22, N^1-((1H-Indol-3-yl)methyl)-N^6-(pyrimidin-2-yl)hexane-1,6-diamine], the “cytotoxic effect on U-87 MG cells” value in the series on U-87 MG cell line (1 to 50 μM) was “more pronounced cytotoxic effect”.
